“Also recorded” adds a separate entry of the source.
Assays:
T. castaneum [1] = assay: Field trapping of fuscumol enantiomers, APT Intercept traps, Bialowieza, Poland, 2007; type: in vivo, Tetropium castaneum; settings: in the presence of host volatiles and ethanol
Source text: (§1) FIG. 4. Mean catch of a. Tetropium fuscum and b. T. castaneum in APT INTERCEPT TRAPS™ (insect traps) baited with synthetic fuscumol (pure S—, pure R—, or racemic) alone and combined with host volatile lures (SB=spruce blend, a blend of monoterpenes in an ultra high release rate (UHR) lure; E=ethanol in an UHR lure) in Bialowieza, Poland in 2007.
Trapping experiments were run in 2007 in Halifax, NS, and Bialowieża, Poland to test the response of Tetropium species to fuscumol, a sex pheromone emitted by male Tetropium fuscum (F.) and male T. cinnamopterum. […] Male T. fuscum emit primarily S-fuscumol so we hypothesized that a synthetic lure of pure S-fuscumol would be more attractive than pure R-fuscumol, and possibly more attractive than racemic fuscumol, especially if R-fuscumol was the major pheromone component of a sympatric sibling species such as T. castaneum. The ultimate objective was to determine if we could improve the efficacy of the lure for use in applications for survey and control of T. fuscum. Conducting the experiment in Poland allowed us to test the response of a different population of T. fuscum from that in Halifax and also to determine the attraction of the pheromone lures to another potentially invasive species, T. castaneum. […]

T. fuscum [2] = assay: as above; type: in vivo, Tetropium fuscum
Source text: as §1
Trapping experiments were run in 2007 in Halifax, NS, and Bialowieża, Poland to test the response of Tetropium species to fuscumol, a sex pheromone emitted by male Tetropium fuscum (F.) and male T. cinnamopterum. […] Male T. fuscum emit primarily S-fuscumol so we hypothesized that a synthetic lure of pure S-fuscumol would be more attractive than pure R-fuscumol, and possibly more attractive than racemic fuscumol, especially if R-fuscumol was the major pheromone component of a sympatric sibling species such as T. castaneum. The ultimate objective was to determine if we could improve the efficacy of the lure for use in applications for survey and control of T. fuscum. Conducting the experiment in Poland allowed us to test the response of a different population of T. fuscum from that in Halifax and also to determine the attraction of the pheromone lures to another potentially invasive species, T. castaneum.
There were eight different lure treatments: S-fuscumol; R-fuscumol; racemic fuscumol; S-fuscumol+UHR (ultra high release rate) spruce blend lure+UHR ethanol lure; R-fuscumol+UHR spruce blend lure+UHR ethanol lure; racemic fuscumol+UHR spruce blend lure+UHR ethanol lure; UHR spruce blend lure+UHR ethanol lure; and unbaited controls.
On McNabs Island near Halifax, NS, COLOSSUS TRAPS™ (insect traps) were used with 15 replicates per treatment and in Bialowieża, APT (Advanced Pheromone Technologies) INTERCEPT TRAPS™ (insect traps) were used with 9 replicates per treatment. The treatments were laid out in randomized complete block designs with 30 m spacing between traps. Traps were out from 15 May to 27 Jun. 2007 on McNabs Island and from 30 Apr. to 25 Jun. 2007 in Bialowieża. […]

T. fuscum [3] = assay: Field trapping, Colossus traps, McNabs Island, Halifax, 2006; type: in vivo, Tetropium fuscum; settings: female and male T. fuscum; compared with host volatiles alone or unbaited traps; 8-week trapping
Source text: (§2) FIG. 3. Mean number (+SE) of male and female T. fuscum (a) and T. cinnamopterum (b) captured in COLOSSUS TRAPS™ (insect traps) baited with synthetic pheromone candidate (P), host volatile lures (HV), P plus host volatiles (P+HV), or un-baited traps, over the entire 8-week trapping period. […] Data for T. fuscum males and females and T. cinnamopterum females were transformed by log (y+1); data for the catch of T. cinnamopterum males were transformed by square root.
(§3) The synthetic pheromone, alone and in combination with host volatile attractants, was tested in a field experiment on McNabs Island, Halifax, Nova Scotia, from 5 Jul. to 29 Aug. 2006, using COLOSSUS TRAPS™ (insect traps) (PheroTech Inc. Delta, British Columbia) (Sweeney et al. 2006)^4. Unbaited traps and traps baited with host volatiles alone served as controls, for a total of four treatments. Treatments were replicated 15 times in a randomized complete block design with 30 m between traps and blocks. Each trap was suspended from a rope tied between two conifers separated by at least 2 m, with the collecting bucket 10-20 cm above the ground. […] Pheromone was dispensed at ca. initially 800 μg/d dropping to 50 μg/d over a 4 week period (determined by weight loss at 23° C.) from a polymerase chain reaction (PCR) sample tube (Axygen Scientific Inc., CA) (0.2-mL thick) with a 1 mm diam. hole drilled in the cap. […]

[4] = system: T. cinnamopterum antennae; assay: Electroantennogram (EAG) antennal stimulation; design: species or system Tetropium cinnamopterum; settings: EAG puffs ca. 30 ng source concentration
Experimental: (§4) Extracts (cal male equivalent in hexane) and synthetics (30 ng fuscumol) were tested for antennal stimulation of T. fuscum and T. cinnamopterum males and females using an electroantennogram (EAG) system and EAG/GC-EAD signal recording (IDAC-232) and analysis software v.2.6 (SYNTECH, The Netherlands). Antennae from males and females were excised close to the head and used intact with SPECTRA-60™ gel (electrode gel) (Parker, USA) for electrical contact.
as §4, with “(ca.1” for “(cal”, “Spectra©-60” for “SPECTRA-60™”, “gel” for “gel (electrode gel)”

T. cinnamopterum = assay: Field trapping, Colossus traps, McNabs Island, Halifax, 2006; type: in vivo, Tetropium cinnamopterum
Source text: as §2, §3

T. castaneum [5] = assay: Trapping with low, medium or high release of racemic fuscumol or fuscumate plus SB and E lures (FIG. 13); type: in vivo, Tetropium castaneum; settings: added to spruce volatile (SB) and ethanol (E) lures
Experimental: FIG. 13 Mean catch of T. castaneum in traps baited with low (1 mg/d), medium (4 mg/d) or high (32 mg/d) of racemic fuscumol plus spruce volatile (SB) and ethanol (E) lures.

T. fuscum antennae = assay: Electroantennogram (EAG) antennal stimulation; design: species or system Tetropium fuscum; settings: EAG puffs ca. 30 ng source concentration
Experimental: as §4
as §4, with “(ca.1” for “(cal”, “Spectra©-60” for “SPECTRA-60™”, “gel” for “gel (electrode gel)”

T. fuscum [6] = assay: Trapping with low, medium or high release of racemic fuscumol or fuscumate plus SB and E lures (FIG. 14); type: in vivo, Tetropium fuscum; settings: added to spruce volatile (SB) and ethanol (E) lures
Experimental: FIG. 14 Mean catch of T. fuscum in traps baited with low (1 mg/d), medium (4 mg/d) or high (32 mg/d) of racemic fuscumol plus spruce volatile (SB) and ethanol (E) lures.

CC(C)=CCC/C(C)=C/CC[C@H](C)O [S-fuscumol, (2S, 5E)-6,10-dimethyl-5,9-undecadien-2-ol]
attraction of T. castaneum (T. castaneum [1]): attracted | attractiveness compared with R-fuscumol or an unbaited trap (T. fuscum [2]; without host volatile lures): significantly more attractive | mean catch compared with racemic fuscumol (T. fuscum [2]; without host volatile lures): did not differ significantly

CC(C)=CCC/C(C)=C/CC[C@@H](C)O [R-fuscumol]
attraction of T. fuscum to S-fuscumol in the presence of R-fuscumol (T. fuscum [2]; racemic versus S-fuscumol): not reduced

CC(C)=CCC/C(C)=C/CCC(C)O (racemic) [racemic fuscumol, (E)-6,10-dimethyl-5,9-undecadien-2-ol]
trap catch compared among lure treatments (T. fuscum [3]): did not differ from that in unbaited traps | antennal response in females relative to males [4]: 2-3 times | antennal response (EAG) ([4]; females, n=5): 1.7 ± 0.2 mV | attraction of T. castaneum (T. castaneum [1]): attracted | trap catch compared with unbaited traps (T. cinnamopterum; T. cinnamopterum, fuscumol alone): did not differ from that in unbaited traps | response of male T. cinnamopterum (T. cinnamopterum; males): Lack of response | catch compared to SB+E (T. castaneum [5]): significantly increased catch | antennal response in females relative to males (T. fuscum antennae): 2-3 times | antennal response (EAG) (T. fuscum antennae; females, n=5): 6.05 ± 0.3 mV

CC(=O)OC/C=C(\C)CCC=C(C)C [fuscumate, geranyl acetate]
catch compared to SB+E (T. fuscum [6]): did not boost catch; also recorded: no effect on attraction | catch compared to SB+E (T. castaneum [5]): did not boost catch; also recorded: no effect on attraction
